Values of other authors, collected in US5198423A, “Functional polypeptide containing a cell binding domain and a heparin binding domain of fibronectin” (Takara Shuzo Co., Ltd., priority 1989, dated 1993).

Test system: angiogenesis
Conditions: chick embryo chorions, rabbit corneas, and hamster cheek pouches
For `C[C@H]1C[C@@H]2[C@H]([C@@H](O)C[C@@]3(C)[C@H]2CC[C@]3(O)C(=O)CO)[C@@]2(C)C=CC(=O)C=C12` [6α-methylprednisolone], the “inhibition of angiogenesis, in words” value is listed as “found to inhibit angiogenesis”.
For `C[C@@H]1C[C@H]2[C@@H]3CCC4=CC(=O)C=C[C@]4(C)[C@@]3(F)[C@@H](O)C[C@]2(C)[C@@]1(O)C(=O)CO` [dexamethasone], the “inhibition of angiogenesis, in words” value is listed as “found to inhibit angiogenesis”.
For `C[C@]12C=CC(=O)C=C1CC[C@@H]1[C@@H]2[C@@H](O)C[C@@]2(C)[C@H]1CC[C@]2(O)C(=O)CO` [prednisolone], the “inhibition of angiogenesis, in words” value is listed as “found to inhibit angiogenesis”.
